T1: Solute carrier family 22 member 6 (Rattus norvegicus, UniProt O35956)
T1 sequence (O35956 whole entry): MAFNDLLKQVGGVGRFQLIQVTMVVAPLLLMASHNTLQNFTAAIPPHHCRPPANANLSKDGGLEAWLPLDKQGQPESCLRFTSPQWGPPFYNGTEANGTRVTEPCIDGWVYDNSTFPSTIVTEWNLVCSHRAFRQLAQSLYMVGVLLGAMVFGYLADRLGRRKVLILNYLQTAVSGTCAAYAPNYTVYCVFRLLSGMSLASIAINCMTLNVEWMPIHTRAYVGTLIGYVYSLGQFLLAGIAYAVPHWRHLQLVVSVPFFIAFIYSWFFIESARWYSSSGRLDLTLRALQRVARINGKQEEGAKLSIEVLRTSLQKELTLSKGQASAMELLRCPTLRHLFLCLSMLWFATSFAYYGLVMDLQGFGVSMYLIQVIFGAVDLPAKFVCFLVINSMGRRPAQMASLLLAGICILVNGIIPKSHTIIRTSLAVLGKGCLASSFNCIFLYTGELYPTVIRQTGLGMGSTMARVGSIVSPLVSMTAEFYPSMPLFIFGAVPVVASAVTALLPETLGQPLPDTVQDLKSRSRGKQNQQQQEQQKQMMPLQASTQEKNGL


How the values were obtained:
[1] = molecular target: T1, Solute carrier family 22 member 6; assay: TP_TRANSPORTER: inhibition of PAH uptake in Xenopus laevis oocytes; format: functional, cell-based, Oocyte; conditions: for Activity: xenopus laevis, oocyte
[2] = molecular target: T1, Solute carrier family 22 member 6; assay: TP_TRANSPORTER: uptake in Xenopus laevis oocytes; format: functional, cell-based; conditions: oocyte
[3] = substrate: Nc1ccc(C(=O)NCC(=O)O)cc1; assay: cells, lysate or membranes named

Row | Molecule | Ki [1] | Activity [1] | further results
1 | CCCCNc1cc(C(=O)O)cc(S(N)(=O)=O)c1Oc1ccccc1 [BUMETANIDE] | 5.5 µM | – | –
2 | CC(=O)/N=c1/sc(S(N)(=O)=O)nn1C [METHAZOLAMIDE] | – | inhibitor [+] | –
3 | NS(=O)(=O)c1cc2c(cc1Cl)NCNS2(=O)=O [HYDROCHLOROTHIAZIDE] | 150 µM | – | –
4 | CCOc1ccc2nc(S(N)(=O)=O)sc2c1 [ETHOXZOLAMIDE] | – | inhibitor [+] | –
5 | NS(=O)(=O)c1cc2c(cc1Cl)N=CNS2(=O)=O [CHLOROTHIAZIDE] | – | inhibitor [+] | –
6 | NS(=O)(=O)c1cc(C(=O)O)c(NCc2ccco2)cc1Cl [FUROSEMIDE] | 9.5 µM | – | Activity [2]: substrate [+]
7 | CC(=O)Nc1nnc(S(N)(=O)=O)s1 [ACETAZOLAMIDE] | 1100 µM | – | Activity [2]: substrate [+]
8 | NS(=O)(=O)c1cc2c(cc1Cl)NC(C1CC3C=CC1C3)NS2(=O)=O (stereo unspecified) [CYCLOTHIAZIDE] | – | inhibitor [+] | –
9 | Solute carrier family 22 member 6 (Rattus norvegicus) (protein) MAFNDLLKQVGGVGRFQLIQVTMVVAPLLLMASHNTLQNFTAAIPPHHCRPPANANLSKDGGLEAWLPLDKQGQPESCLRFTSPQWGPPFYNGTEANGTRVTEPCIDGWVYDNSTFPSTIVTEWNLVCSHRAFRQLAQSLYMVGVLLGAMVFGYLADRLGRRKVLILNYLQTAVSGTCAAYAPNYTVYCVFRLLSGMSLASIAINCMTLNVEWMPIHTRAYVGTLIGYVYSLGQFLLAGIAYAVPHWRHLQLVVSVPFFIAFIYSWFFIESARWYSSSGRLDLTLRALQRVARINGKQEEGAKLSIEVLRTSLQKELTLSKGQASAMELLRCPTLRHLFLCLSMLWFATSFAYYGLVMDLQGFGVSMYLIQVIFGAVDLPAKFVCFLVINSMGRRPAQMASLLLAGICILVNGIIPKSHTIIRTSLAVLGKGCLASSFNCIFLYTGELYPTVIRQTGLGMGSTMARVGSIVSPLVSMTAEFYPSMPLFIFGAVPVVASAVTALLPETLGQPLPDTVQDLKSRSRGKQNQQQQEQQKQMMPLQASTQEKNGL | – | – | Km [3]: 31 µM

From ChEMBL document CHEMBL2074230, “Interaction and transport of thiazide diuretics, loop diuretics, and acetazolamide via rat renal organic anion transporter rOAT1” (J Pharmacol Exp Ther, 2000)
